{
  "source": "patent US20070037782A1",
  "about": "“Therapeutic agent for ageing macular degeneration” (MEIJI DAIRIES CORPORATION, priority 2003, published 2007)",
  "system": "rat model of laser-induced choroidal neovascularization",
  "assay": "Inhibitory effect on choroidal neovascularization (CNV) after subconjunctival administration, rat model of laser-induced CNV",
  "assay_type": "in vivo, Rats (Brown Norway)",
  "conditions": "for incidence of CNV relative to that of the base group: single subconjunctival administration, 14 days after photocoagulation, mean±S.E., P<0.01 vs base group",
  "method": "An inhibitory effect on choroidal neovascularization caused by the subconjunctival administration of FMPA was assessed using a rat model of laser-induced choroidal neovascularization (which may hereinafter be abbreviated as CNV).\nRats (Brown Norway, 8 week old, male) were given general anesthesia and their pupils were dilated with one drop of commercially available eye-drops (“Mydrin P”, trade name; product of Santen Pharmaceutical Co. Ltd.) They were then subjected to photocoagulation by a krypton laser photocoagulation apparatus (“MC-7000L”, manufactured by NIDEK Co., Ltd.). The photocoagulation was performed sporadically at 8 sites while focusing on the deep layer of the retina and avoiding laser irradiation to thick retinal blood vessels (coagulation conditions: spot size of 100μm, output of 100 mW and coagulation time for 0.1 second). This photocoagulation was given to both eyes. After photocoagulation, the sites exposed to laser were confirmed by fundus photography. These rats were bred for 14 days, whereby CNV rat models were produced. […]\nFourteen days after photocoagulation, 0.1 mL of 10 wt.% fluorescein was injected through the caudal vein and based on the photograph taken by a fluorescein fundus camera (“Pro III”, product of Kowa Company Ltd), presence or absence of CNV was observed. […] A ratio of the number of positive sites to the number of all the exposed sites (8 sites) of eyeballs was calculated and the incidence of CNV of each administration group was calculated when the CNV incidence of the base group (Group 1) was assumed to be 1.00. […]\nThe incidence of CNV was expressed as a mean value±S.E. Comparison between the base group (Group 1) and each FMPA group (Groups 2 and 3) was made using analysis of variance, followed by Dunnett multiple comparison tests, while comparison between the base group and Comparative medicament group (Group 4) or comparison between the FMPA group (Group 2) and Comparative medicament group was made using t-test. […]",
  "data": [
    {"smiles": "CC(=O)O[C@]1(C(C)=O)CC[C@H]2[C@@H]3C[C@H](C)C4=CC(=O)CC[C@]4(C)[C@@]3(F)CC[C@@]21C", "note": "[FMPA, 9α-fluoromedroxyprogesterone acetate]", "values": [
      {"measurement": "incidence of CNV relative to that of the base group", "setting": "1000 μg/eye", "value": "62.2±6.7", "unit": "%"},
      {"measurement": "incidence of CNV relative to that of the base group", "setting": "3000 μg/eye", "value": "48.9±6.5", "unit": "%"},
      {"measurement": "CNV inhibitory effect (in words)", "setting": "1000 and 3000 μg/eye, subconjunctival, rat", "value": "dose-dependent CNV inhibitory effect"}
    ]}
  ]
}
